We go through eight compounds from US11246965B2, “Compositions and methods for reducing neointima formation” (University of Georgia Research Foundation, Inc., priority 2013, dated 2022).

Data set [1] relates to Rat aortic smooth muscle cells (SMCs). The data set can be described thus: SMC proliferation (MTT cell proliferation assay). It is filed as cell-based. The method, then: Rat aortic smooth muscle cells (SMCs) were cultured by enzyme-digestion method from rat thoracic aorta as described previously (Hofer, et al., Proc Natl Acad Sci USA., 98:6412-6416 (2001), Marquez, et al., Biochem Pharmacol., 41:1821-1829 (1991), (Berg, et al., Eur. J. Biochem., 216:161-167 (1993)). SMC phenotype of the cultured cells was confirmed by the expression of smooth muscle alpha-actin and SM22-alpha.
(§1) Cell proliferation was evaluated with 3-(4,5-dimethylthiazol-2-yl)-2,5-diphenyltetrazolium (MTT) assay using a TACS MTT Cell Proliferation Assay Kit (Trivegen). The optical density at 570 nm was measured.
Background: Tetrazolium dyes change colour on reduction, which living cells bring about.

The test system of another data set is Endothelial cell C166. Description: EC proliferation (MTT cell proliferation assay). It is filed as cell-based. The method, then: Endothelial cell C166 was purchased from ATCC and grown at 37° C. in a humidified atmosphere of 5% CO2 in DMEM (Invitrogen) supplemented with 10% FBS.
as §1

The subject of another data set is CTP synthetase. Conditions: cited from earlier work; for CTPS activity: literature.
The test system of data set [2] is Rat aortic smooth muscle cells (SMCs). Description: In vitro SMC apoptosis, PI/Annexin V flow cytometry. In kind it is cell-based. Conditions: 24 h treatment with 500 nM. The method, then:
(§2) In vivo cell apoptosis was evaluated by detecting DNA fragmentation using the terminal deoxynucleotidyl transferase (TdT)-mediated dUTP-digoxigenin nick end-labeling method (TUNEL kit, Roche, USA). Apoptotic cells were observed under a fluorescent microscope. In vitro cell apoptosis was measured by Flow Cytometry. Cells were stained with both Annexin V-FITC (BD Biosciences) and propidium iodide (PI) and analyzed on a FACSCALIBUR™ (Becton Dickinson). The percentages of positive-stained cells were quantified using […]™ software (Becton Dickinson). Non-stained cells served as controls.
For orientation: A flow cytometer gives signals particle by particle.

In a further data set the test system is neointima SMCs. The data set can be described thus: In vivo cell apoptosis by TUNEL assay in injured arteries. Also on record: species or system rat. Conditions: 2 mg/kg b.w./day. The method, then: as §2
To confirm the specificity of CTPS1 function, CTPS1 was knockdown using adenoviral-mediated shRNA delivery in injured arteries.

Data set [3] deals with balloon-injured rat carotid arteries. The data set can be described thus: Re-endothelialization in rat carotid artery balloon injury model (CD31, Evans blue). Conditions: 1 mg/kg CPEC, day 14. It is filed as in vivo. The method, then: Rat carotid artery balloon injury was performed using 2F Fogarty arterial embolectomy balloon catheter (Baxter Edwards Healthcare) as described previously (Tulis, Methods Mol. Med., 139:1-30 (2007)). 7, 14 or 60 days later, the balloon-injured arteries were perfused with saline, fixed with 4% paraformaldehyde, embedded in paraffin, and sectioned. Subsequent morphometric analyses were performed in a double-blinded manner. Ten sections that were evenly distributed in the vessel segments were collected for analysis. The sections were stained with modified hematoxylin and eosin or elastica van Gieson (VG) staining. Cross-sectional images were captured with a Nikon microscope (Nikon America Inc). The circumference of the lumen, internal elastic lamina, and external elastic lamina were measured using Image-pro Plus Software. For immunohistochemistry (IHC) staining, sections were rehydrated, blocked with 5% goat serum, permeabilized with 0.01% Triton X-100 in PBS, and incubated with primary antibodies at 4° C. overnight followed by incubation with horseradish peroxidase-conjugated secondary antibody. The sections were counterstained with hematoxylin.
To determine if CTPS1 plays a role in re-endothelialization during vascular remodeling in vivo, CPEC was administered systematically via osmotic pump into rats with balloon-injury or mice with wire-injury in their carotid arteries. […]

Data set [4] concerns wire-injured mouse carotid artery. The data set can be described thus: Mouse carotid artery wire injury model, re-endothelialization (Evans Blue). It is filed as in vivo. To be noted: 10 mg/kg/day, in the presence of CPEC. The method, then:
Mice were anesthetized with ketamine hydrochloride (80 mg/kg IP) and xylazine (5 mg/kg IP), a 0.38-mm flexible angioplasty guidewire was advanced by 1 cm via a transverse arteriotomy of the external carotid artery, and endothelial denudation of the common carotid artery was achieved by 3 rotational passes (Werner, et al., Circ. Res., 93:e17-e24 (2003)).
To further establish CTPS function in re-endothelialization after vascular injury, the endothelial denudation and re-endothelialization was tested in a different model, i.e., mouse wire-injury model. […] Systematic administration of CPEC was achieved via osmotic pump (1 mg/kg/day). Re-endothelialization in mouse arteries occurred rapidly following injury (FIG. 6B). 5 days after injury, re-endothelialization was completed, consistent with the previous reports (Hagensen, et al., Cardiovasc Res., 93:223-231 (2012)).

Setting [5] is: abundant (10 μM) cytidine alone (FIG. 6D).

In the case of `Nc1ccn([C@@H]2O[C@H](COP(=O)(O)OP(=O)(O)OP(=O)(O)O)[C@@H](O)[C@H]2O)c(=O)n1` [CTP], in data set [1] (setting [5]), the SMC proliferation entry is “not to be able to stimulate”. The EC proliferation result with Endothelial cell C166 (setting [5]) was “not to be able to stimulate”.

On to `[N-]=[N+]=CC(=O)CC[C@H](N)C(=O)O` [6-diazo-5-oxonorleucine, 6-diazo-5-oxo-L-norleucin], for which the CTPS activity result in the data set on CTP synthetase is “effectively block CTPS activity”.

For `N[C@H](C(=O)O)[C@@H]1CC(Br)=NO1` [3-bromoacivicin], in the data set on CTP synthetase (Conti, et al, ChemMedChem (2011)), the “CTP synthetase inhibitor potency relative to 3-chloro analog (acivicin)” value is listed as “three times as potent”.

As for carbodine, the CTPS activity entry with CTP synthetase is on record as “effectively block CTPS activity”.

For `CC(=O)O[C@H]1C(=O)[C@@]2(C)[C@H]([C@H](OC(=O)c3ccccc3)[C@]3(O)C[C@H](OC(=O)[C@H](O)[C@@H](NC(=O)c4ccccc4)c4ccccc4)C(C)=C1C3(C)C)[C@]1(OC(C)=O)CO[C@@H]1C[C@@H]2O` [paclitaxel, Paclitaxel], the SMC proliferation result in data set [1] (20 nmol/L or 500 nmol/L) was “suppressed”. Further, the EC proliferation result in the data set with Endothelial cell C166 (20 nmol/L or 500 nmol/L) is “suppressed”. In addition, the “restoration of inhibitory effect on EC and SMC proliferation by cytidine” value with Endothelial cell C166 (500 nM paclitaxel with 10 μM cytidine) is recorded as “could not be restored by cytidine”. In addition, the “relative sensitivity of SMCs and ECs (proliferation)” value in the data set on Endothelial cell C166 (ECs compared with SMCs) is “ECs seemed to be more sensitive to paclitaxel than SMCs”.

With `Nc1ccn([C@@H]2O[C@H](CO)[C@@H](O)[C@H]2O)c(=O)n1` [cytidine], the “restoration of SMC proliferation blocked by high dosage of CPEC” value in data set [1] (500 nM CPEC + 10 μM cytidine) is given as “not SMC”. The “restoration of EC proliferation blocked by high dosage of CPEC” value in the data set on Endothelial cell C166 (500 nM CPEC + 10 μM cytidine) was “restored EC”.

Turning to `Nc1ccn([C@@H]2C=C(CO)[C@@H](O)[C@H]2O)c(=O)n1` [CPEC, cyclopentenyl cytosine], the SMC apoptosis result in data set [2] is on record as “did not induce SMC apoptosis”. Besides, the “in vivo cell apoptosis (TUNEL)” value in the data set on neointima SMCs is “no apoptotic cells were observed”. Also, the “re-endothelialization area of the injured vessels (Evans blue)” value in data set [3] was 66%.

`O=c1oc2c(O)c(O)cc3c(=O)oc4c(O)c(O)cc1c4c23` [EA, ellagic acid]: the re-endothelialization entry in data set [4] was “dramatically impaired”. Further, the “cytidine-restored EC proliferation” value in the data set on Endothelial cell C166 (CPEC + cytidine) is on record as “blocked cytidine-restored EC proliferation in a dose-dependent manner”.
